Results on four compounds are retold here after paper PMC10302146, “Dual Anta-Inhibitors Targeting Protein Kinase CK1δ and A2A Adenosine Receptor Useful in Neurodegenerative Disorders” (Molecules, 2023).

One may read the IC50 as the concentration needed to halve the response being measured. By viability is commonly meant a read-out of living cells in per cent, often relative to untreated cells.

The test system of series [1] is N13 microglial cells. Description: N13 cell viability (CellTiter 96 AQueous One, MTS), ligands alone. Format: cell-based. The settings on record: for cell viability: 60 min, alone. The protocol:
Starting from these observations, since this double effect could be a suitable strategy for the treatment of chronic neurodegenerative diseases, in which neuroinflammation plays a crucial role, these compounds were tested on an in vitro model of neuroinflammation in comparison with the reference compounds. The experiments were performed using N13 microglial cells. The colorimetric method CellTiter 96® AQueous One Solution Cell Proliferation assay was used to determine the number of live cells in cytotoxicity or proliferation assays. The tetrazole compound MTS was bio-reduced by the cells into formazan, a colored product soluble in the cellular medium. The percentage of cell viability was analyzed through an absorbance reading at 492 nm. The concentrations of ligands were chosen based on the results of binding assays. Specifically, lower, similar, and higher concentrations than the Ki value were used.
Experiments were performed in triplicate.

In series [2] the test system is N13 microglial cells. Description: N13 cell viability, ligand pretreatment 60 min then CK cocktail 48 h (CK1δ inhibition protocol). Conditions: for cell vitality: CK cocktail alone 69% ± 0.3 vs. control. Format: cell-based.
For a further series, the system named is N13 cell line. Nature of the series: Griess assay, nitrite production (antioxidant effect). Format: cell-based. The settings on record: compound 2 4500 nM, ZM241385 10 nM. The source says: In addition, since oxidative stress has received extensive attention as one important entry point in the pathogenesis of neurodegenerative diseases, the potential antioxidant profile of compounds 1 and 2 was investigated. Oxidative stress and neuroinflammation play synergistic roles in the promotion of neurodegenerative disease progression. During a CNS insult, there is an activation of microglial cells, which stimulate immune responses to instigate tissue repair. If the triggering cause of the immune response is eradicated, the immune response resolves, but if the initial stress persists, it will lead to an overproduction of neurotoxic factors such as chemokines and proinflammatory cytokines such as Tumor Necrosis Factor-α (TNF-α) and Interleukin-1β (IL-1β). This pathological state will lead to an overproduction of ROS and a state of oxidative stress. High levels of ROS inactivate or damage proteins, leading to cellular degeneration and death. Furthermore, ROS can activate proinflammatory pathways, further promoting a harmful environment for vulnerable neurons. In light of this, the potential antioxidant capacity of compounds was studied. […] The combination of anti-inflammatory and antioxidant activities makes compound 2 particularly appealing in counteracting two of the factors involved in the pathogenesis of neurodegenerative pathologies.
The N13 cell line was introduced into a 96-well UV-VIS transparent plate at a population of 1 × 10^4 cells per well in 98 μL of DMEM and incubated overnight. […] After 24 h of incubation, the media from each well was transferred into another 96-well plate, and then 50 µL of the sulphanilamide solution was placed into the wells. After 10 min of incubation at room temperature (rt), 50 µL of the NED solution was dispensed to all wells, and the plate was incubated at rt for an additional 5–10 min. After half an hour, absorbance was measured in the microplate reader GENiosPro using a 520–550 nm filter. All measurements were reproduced in 3–5 replicates. The nitric oxide formation was investigated by measuring nitrite (NO^2−), which is one of two primary breakdown products of NO. A nitrite standard reference curve was used for quantitative evaluation of the concentration of NO^2− in samples.
(In general: Griess reagent forms a coloured azo dye with nitrite.)

For series [3], the system named is N13 microglial cells. Description: N13 cell viability, CK cocktail 48 h pretreatment then ligand (A2AAR antagonist protocol). Conditions: 60 min. The protocol: Given the nature of compounds, dual A2A/CK1δ anta-inhibitors, their neuroprotective effect against a neuroinflammatory insult was investigated following two different approaches aimed at studying the antagonist activity on the A2AAR and the inhibitor effect on CK1δ. […] The concentrations used were 35, 65, and 400 µM at 60 min of incubation.
N13 cells were plated in 96-well plates at the confluence of 1 × 10^4 cells/well and incubated overnight. Cells were divided into two groups in order to study the activity of compounds on A2AAR and CK1δ (Scheme 1). […] Cells of the second group were pretreated with 2 µL at different concentrations of understudy ligand, or the reference compound PF670462, for 30 or 60 min and then with further addition of a proinflammatory cocktail of cytokines for 48 h (Scheme 1). After treatment, 20 µL of CellTiter 96® AQueous One Solution Reagent was added to each well to a final volume of 100 µL. After 1 h of incubation, absorbance was measured at 492 nm in the microplate reader GENiosPro. Cell viability was estimated as the relation between the OD of treated cells and the OD of untreated cells in percentage. An untreated control and a control with the solvent were run. Experiments were performed in triplicate.

Another series addresses human recombinant A1AR. Also noted: method as in PMID 37259317. The settings on record: [3H]CCPA, membranes from CHO cells stably transfected; means ± standard errors; read-out: KiA1; cited from earlier work.
Another series has as its target human recombinant A2AAR. Also on record: method as in PMID 37259317. The settings on record: cited from earlier work; for Ki: [3H]NECA, membranes from CHO cells stably transfected, means ± standard errors, read-out: KiA2A.
The next series has as its target human recombinant A3AR. Also on record: method as in PMID 37259317. Conditions: [3H]HEMADO, membranes from CHO cells stably transfected; means ± standard errors; read-out: KiA3; cited from earlier work.
For the next series, the system named is CK1δ. Also noted: method as in PMID 37259317. The settings on record: cited from earlier work; for IC50: enzymatic inhibition.

Take `Nc1nccc(-c2c(-c3ccc(F)cc3)ncn2C2CCCCC2)n1` [PF-670462, reference compound]: the cell viability entry in the series with N13 microglial cells [1] (0.05 µM) was “does not affect cell viability”; in the series with N13 microglial cells [1] (0.1 µM) it was 75% ± 1.4; in the series with N13 microglial cells [1] (1 µM), 60% ± 2.9; with N13 microglial cells [2] (1 µM 60 min before CK cocktail 48 h) it was “no significant decrease in cell viability”. Also, the cell vitality in the series with N13 microglial cells [2] (0.05 µM 60 min before CK cocktail 48 h) is 96% ± 3.1; with N13 microglial cells [2] (0.1 µM 60 min before CK cocktail 48 h) it was 78% ± 3.5.

`Nc1nc(NCCc2ccc(O)cc2)nc2nc(-c3ccco3)nn12` [ZM241385, reference compound]: the “cell viability vs. control” value with N13 microglial cells [1] (0.01 µM, absence of CK cocktail (reference used at 60 min)) was 155% ± 1.9. Moreover, in the series on N13 cell line, the “compensation of oxidative stress caused by the CK cocktail” value is recorded as “successfully compensated”.

With `N#CCNc1nc(Cl)nc2c1ncn2C1CCCC1` [compound 3, 2-((2-Chloro-9-cyclopentyl-9H-purin-6-yl)amino)acetonitrile], in the series on N13 microglial cells [3] (400 µM, after CK cocktail (Figure 3)), the “cell vitality increase up to” value came to 93 ± 1.1%. The “counteraction of CK cocktail effect (cell viability)” value with N13 microglial cells [3] (35, 65 and 400 µM, after CK cocktail) is on record as “able to counteract the effect of the CK cocktail but to a lesser extent than compound 2”. Also, the Ki on human recombinant A1AR was 0.118 ± 0.01 µM; at human recombinant A2AAR, 7 ± 0.01 nM; at human recombinant A3AR it was 0.14 ± 0.035 µM. For the same compound, the “% Residual Activity at 40 μM ± sd” value in the series with CK1δ is listed as 86 ± 1.6%. Further, the “CK1δ inhibition, in words” value in the series on CK1δ was “inactive as a CK1δ inhibitor”. Further, the half-inhibitory concentration (IC50) in the series on CK1δ was above 40000 nM.

Take `Nc1nc(Cl)nc2c1nc(-c1ccco1)n2C1CCCC1` [compound 4, 2-chloro-9-cyclopentyl-8-(furan-2-yl)-9H-purin-6-amine]: the viability at 25 µM with N13 microglial cells [2] (N13, 25 µM 60 min before CK cocktail 48 h, CK cocktail alone 78% 1.3 vs. control (Figure 7)) was 108%. Moreover, the viability at 50 µM in the series with N13 microglial cells [2] (N13, 50 µM 60 min before CK cocktail 48 h, CK cocktail alone 78% 1.3 vs. control) was 102%. Also, the viability at 500 µM in the series on N13 microglial cells [2] (N13, 500 µM 60 min before CK cocktail 48 h, CK cocktail alone 78% 1.3 vs. control) was determined as 90%. Further, the Ki at human recombinant A1AR is 8.66 ± 1.52 µM. Also, at human recombinant A2AAR, the Ki is 3480 ± 312 nM and the “A2AAR antagonism, in words” value was “inactive as an A2AAR antagonist”. In addition, the Ki on human recombinant A3AR was 5.96 ± 1.02 µM. For the same compound, the “% Residual Activity at 10 μM ± sd” value in the series with CK1δ (10 μM) is listed as 13 ± 24%. In the series on CK1δ, the “% Residual Activity at 40 μM ± sd” value was 25 ± 9.6% and the 50% inhibitory concentration (IC50) was 360 ± 100 nM.
